Measured values from patent US9839629B2, “Inhibitors of the renal outer medullary potassium channel” (Merck Sharp & Dohme Corp., priority 2013, dated 2017).

Each molecule was assayed against T1, ROMK (Kir1.1) channel (Homo sapiens, UniProt P48048) (assay: Thallium Flux Assay).
T1 sequence (P48048 1-391): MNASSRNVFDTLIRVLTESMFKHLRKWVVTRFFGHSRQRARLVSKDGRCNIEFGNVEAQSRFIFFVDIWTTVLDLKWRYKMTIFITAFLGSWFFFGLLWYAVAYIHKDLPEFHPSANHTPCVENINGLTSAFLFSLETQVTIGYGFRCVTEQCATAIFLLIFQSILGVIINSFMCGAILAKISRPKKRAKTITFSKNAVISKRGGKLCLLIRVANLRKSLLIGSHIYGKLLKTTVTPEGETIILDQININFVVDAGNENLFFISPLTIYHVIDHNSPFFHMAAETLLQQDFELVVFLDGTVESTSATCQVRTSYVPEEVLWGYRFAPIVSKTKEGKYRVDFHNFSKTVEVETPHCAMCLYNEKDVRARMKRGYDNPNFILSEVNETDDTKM
Assay type: cell-based
Procedure, shortened: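 Thallium flux assay as described in WO 2013/062900. Compounds supplied as HCl salts were tested in salt form.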

Structure (SMILES)	IC50 [nM]
CC1=C(N2CCC3(CCN(C[C@H](O)c4ccc5c(c4C)COC5=O)CC3)[C@H](F)C2)COC1=O [Example 35, 5-((R)-2-((S)-7-fluoro-9-(4-methyl-5-oxo-2,5-dihydrofuran-3-yl)-3,9-diazaspiro[5.5]undecan-3-yl)-1-hydroxyethyl)-4-methylisobenzofuran-1(3H)-one]	236
Cc1c([C@@H](O)CN2CCC3(CC2)CCN(C2=CC(=O)OC2C)CC3)ccc2c1COC2=O (stereo partly drawn) [Example 37, 5-((1R)-1-hydroxy-2-(9-(2-methyl-5-oxo-2,5-dihydrofuran-3-yl)-3,9-diazaspiro[5.5]undecan-3-yl)ethyl)-4-methylisobenzofuran-1(3H)-one]	140
CO[C@H](CN1CCC2(CC1)CCN(C1=CC(=O)OC1)CC2)c1ccc2c(c1C)COC2=O [Example 90, (S)-5-(1-methoxy-2-(9-(5-oxo-2,5-dihydrofuran-3-yl)-3,9-diazaspiro[5.5]undecan-3-yl)ethyl)-4-methylisobenzofuran-1(3H)-one]	165
CCOC1OC(=O)C=C1N1CCC2(CCN(C[C@H](O)c3ccc4c(c3C)COC4=O)CC2)CC1 (stereo partly drawn) [Example 92, 5-((1R)-2-(9-(2-ethoxy-5-oxo-2,5-dihydrofuran-3-yl)-3,9-diazaspiro[5.5]undecan-3-yl)-1-hydroxyethyl)-4-methylisobenzofuran-1(3H)-one]	539
CC1=C(N2CCC3(CCN(C[C@H](O)c4ccc5c(c4C)COC5=O)CC3)CC2)CCC1=O [Example 76, (R)-5-(1-hydroxy-2-(9-(2-methyl-3-oxocyclopent-1-en-1-yl)-3,9-diazaspiro[5.5]undecan-3-yl)ethyl)-4-methylisobenzofuran-1(3H)-one]	109
COCO[C@@H]1CN(C2=C(C)C(=O)OC2)CCC12CCN(C[C@H](O)c1ccc3c(c1C)COC3=O)CC2 [Example 96, 5-{(1R)-1-hydroxy-2-[(7S)-7-(methoxymethoxy)-9-(4-methyl-5-oxo-2,5-dihydrofuran-3-yl)-3,9-diazaspiro[5.5]undec-3-yl]ethyl}-4-methyl-2-benzofuran-1(3H)-one]	132
Cc1c(N2CCC3(CCN(C[C@@H](O)c4ccc(-n5cnnn5)nn4)CC3)CC2)c(=O)c1=O [Example 84, (R)-3-(9-(2-(6-(1H-tetrazol-1-yl)pyridazin-3-yl)-2-hydroxyethyl)-3,9-diazaspiro[5.5]undecan-3-yl)-4-methylcyclobut-3-ene-1,2-dione]	765
CO[C@@H]1CN(C2=C(C)C(=O)OC2)CCC12CCN(C[C@H](O)c1ccc3c(c1C)COC3=O)CC2 [Example 98, 5-{(1R)-1-hydroxy-2-[(7S)-7-methoxy-9-(4-methyl-5-oxo-2,5-dihydrofuran-3-yl)-3,9-diazaspiro[5.5]undec-3-yl]ethyl}-4-methyl-2-benzofuran-1(3H)-one]	53
Cc1c(N2CCC3(CCN(C[C@H](O)c4ccc(-n5cnnn5)nn4)CC3)CC2)c(=O)c1=O [Example 83, (S)-3-(9-(2-(6-(1H-tetrazol-1-yl)pyridazin-3-yl)-2-hydroxyethyl)-3,9-diazaspiro[5.5]undecan-3-yl)-4-methylcyclobut-3-ene-1,2-dione]	317
CC1=C(N2CCC3(CC2)CCN([C@@H](CO)c2ccc(-n4cnnn4)cc2C)CC3)COC1=O [Example 58, (R)-4-(9-(2-hydroxy-1-(2-methyl-4-(1H-tetrazol-1-yl)phenyl)ethyl)-3,9-diazaspiro[5.5]undecan-3-yl)-3-methylfuran-2(5H)-one]	256
Cc1c([C@@H](O)CN2CCC3(CC2)CCN(C2=C(c4ccncc4)C(=O)OC2)CC3)ccc2c1COC2=O [Example 42, (R)-5-(1-hydroxy-2-(9-(5-oxo-4-(pyridin-4-yl)-2,5-dihydrofuran-3-yl)-3,9-diazaspiro[5.5]undecan-3-yl)ethyl)-4-methylisobenzofuran-1(3H)-one]	352

Other lines, results leading:

IC50 [nM]	Structure (SMILES)
41	O=C1C=C(N2CCC3(CCN(C[C@H](O)c4ccc(-n5cnnn5)nn4)CC3)CC2)CO1 [Example 16, (S)-4-(9-(2-(6-(1H-tetrazol-1-yl)pyridazin-3-yl)-2-hydroxyethyl)-3,9-diazaspiro[5.5]undecan-3-yl)furan-2(5H)-one]
180	C[C@H]1Cc2cc([C@@H](O)CN3CCC4(CC3)CCN(C3=CC(=O)OC3)CC4)ccc2C(=O)O1 [Example 11, (S)-6-((R)-1-hydroxy-2-(9-(5-oxo-2,5-dihydrofuran-3-yl)-3,9-diazaspiro[5.5]undecan-3-yl)ethyl)-3-methylisochroman-1-one]
11	Cc1nc(-n2cnnn2)ccc1[C@@H](O)CN1CCC2(CC1)CCN(C1=C(F)C(=O)OC1)CC2 [Example 39, (R)-3-fluoro-4-(9-(2-hydroxy-2-(2-methyl-6-(1H-tetrazol-1-yl)pyridin-3-yl)ethyl)-3,9-diazaspiro[5.5]undecan-3-yl)furan-2(5H)-one]
305	CC1=C(N2CCC3(CCN(C[C@H](O)c4cc(-n5cnnn5)ccn4)CC3)CC2)COC1=O [Example 67, (S)-4-(9-(2-(4-(1H-tetrazol-1-yl)pyridin-2-yl)-2-hydroxyethyl)-3,9-diazaspiro[5.5]undecan-3-yl)-3-methylfuran-2(5H)-one]
132	O=C1C=C(N2CCC3(CCN(C(=O)C4CCc5cc(-n6cnnn6)ncc54)CC3)CC2)CO1 (stereo not shown) [Example 103, 4-(9-{[3-(1H-tetrazol-1-yl)-6,7-dihydro-5H-cyclopenta[c]pyridin-7-yl]carbonyl}-3,9-diazaspiro[5.5]undec-3-yl)furan-2(5H)-one]
115	O=C1C=C(N2CCC3(CCN(C(=O)Cc4cc(F)c(-n5cnnn5)cc4F)CC3)CC2)CO1 [Example 104, 4-(9-{[2,5-difluoro-4-(1H-tetrazol-1-yl)phenyl]acetyl}-3,9-diazaspiro[5.5]undec-3-yl)furan-2(5H)-one]
98	Cc1cc(-n2cnnn2)cnc1[C@@H](O)CN1CCC2(CC1)CCN(C1=CC(=O)OC1)CC2 [Example 20, (S)-4-(9-(2-hydroxy-2-(3-methyl-5-(1H-tetrazol-1-yl)pyridin-2-yl)ethyl)-3,9-diazaspiro[5.5]undecan-3-yl)furan-2(5H)-one]
11	CC1=C(N2CCC3(CCN(C[C@@H](O)c4ccc(-n5cnnn5)cc4C)CC3)CC2)COC1=O [Example 56, (S)-4-(9-(2-hydroxy-2-(2-methyl-4-(1H-tetrazol-1-yl)phenyl)ethyl)-3,9-diazaspiro[5.5]undecan-3-yl)-3-methylfuran-2(5H)-one]
16	CC1=C(N2CCC3(CCN(C[C@@H](O)c4ccc(-n5cnnn5)cc4)CC3)CC2)COC1=O [Example 50, (S)-4-(9-(2-(4-(1H-tetrazol-1-yl)phenyl)-2-hydroxyethyl)-3,9-diazaspiro[5.5]undecan-3-yl)-3-methylfuran-2(5H)-one]
181	Cc1cc(-n2cnnn2)cnc1C(O)CN1CCC2(CC1)CCN(C1=CC(=O)OC1)CC2 (stereo in doubt) [Example 21, (S)-4-(9-(2-hydroxy-2-(3-methyl-5-(1H-tetrazol-1-yl)pyridin-2-yl)ethyl)-3,9-diazaspiro[5.5]undecan-3-yl)furan-2(5H)-one]
336	Cc1c(N2CCC3(CCN(C[C@@H](O)c4cnc(-n5cnnn5)cn4)CC3)CC2)c(=O)c1=O [Example 86, (R)-3-(9-(2-(5-(1H-tetrazol-1-yl)pyrazin-2-yl)-2-hydroxyethyl)-3,9-diazaspiro[5.5]undecan-3-yl)-4-methylcyclobut-3-ene-1,2-dione]
22	CC1=C(N2CCC3(CCN(C[C@H](O)c4cccc(-n5cnnn5)c4)CC3)CC2)COC1=O [Example 59, (R)-4-(9-(2-(3-(1H-tetrazol-1-yl)phenyl)-2-hydroxyethyl)-3,9-diazaspiro[5.5]undecan-3-yl)-3-methylfuran-2(5H)-one]
32	CC1=C(N2CCC3(CCN(C[C@@H](O)c4cccc(-n5cnnn5)c4)CC3)CC2)COC1=O [Example 60, (S)-4-(9-(2-(3-(1H-tetrazol-1-yl)phenyl)-2-hydroxyethyl)-3,9-diazaspiro[5.5]undecan-3-yl)-3-methylfuran-2(5H)-one]
443	O=C1C=C(N2CCC3(CCN(CC(O)c4cnc(-n5cnnn5)nc4)CC3)CC2)CO1 (stereo not shown) [Example 15, 4-(9-(2-(2-(1H-tetrazol-1-yl)pyrimidin-5-yl)-2-hydroxyethyl)-3,9-diazaspiro[5.5]undecan-3-yl)furan-2(5H)-one]
